pIC50: −log10 of the molar value. Where two headings read alike, the source gives them in different places.
Key:
[1] = tested on: endothelial tube formation in co-cultures of ECFCs and ADSCs treated with VEGF; test: cells; format: cell-based, human; details: for pIC50: read-out: VEGF_ADSC\ECFC Angio CD31 TubeArea summarized IC50
[2] = tested on: ECFC/ADSC co-culture cell nuclei number; details: for pIC50: read-out: VEGF_ADSC\ECFC Angio Hoechst NucArea summarized IC50
HeLa cells = test: cells; format: cell-based;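 for Hela CellCycMod PI 4N summarized IC50: value tracks stimulation of 4N DNA content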

| SMILES | VEGF_ADSC\ECFC Angio CD31 TubeArea IC50/EC50 [1] [µM] | VEGF_ADSC\ECFC Angio Hoechst NucArea IC50/EC50 [2] [µM] | pIC50 [1] | pIC50 [2] | further results |
| --- | --- | --- | --- | --- | --- |
| C#C[C@]1(OC(C)=O)CC[C@H]2[C@@H]3CCC4=CC(=NO)CC[C@@H]4[C@H]3CC[C@@]21CC (mixture of isomers) [NCGC00344561-01] | > 10 | > 10 |  |  |  |
| CC(C)c1c(C(=O)Nc2ccccc2)c(-c2ccccc2)c(-c2ccc(F)cc2)n1CC[C@@H](O)C[C@@H](O)CC(=O)O [Atorvastatin, reference compound] |  |  |  |  | inhibition of endothelial tube / cord formation (in words) [1]: did not inhibit endothelial tube formation |
| CN(C)CCCN1c2ccccc2Sc2ccc(Cl)cc21 [NCGC00015273-19] |  |  | < 5.00 | < 5.00 |  |
| O=C1NCN(c2ccccc2)C12CCN(CCCC(c1ccc(F)cc1)c1ccc(F)cc1)CC2 [NCGC00015424-11] |  |  |  |  | IC50/EC50, VEGF_ADSC\ECFC Angio CD31 TubeArea (assay number 2) [1]: > 10 µM; IC50/EC50, VEGF_ADSC\ECFC Angio Hoechst NucArea (assay number 3) [2]: 8.086 µM |
| OCCN1CCN(CCCN2c3ccccc3Sc3ccc(C(F)(F)F)cc32)CC1 [NCGC00015436-11] | > 10 | > 10 |  |  |  |
| O=c1c(-c2ccc(O)cc2)coc2cc(O)cc(O)c12 [NCGC00015479-19] |  |  |  |  | IC50/EC50, VEGF_ADSC\ECFC Angio CD31 TubeArea (assay number 2) [1]: > 10 µM; IC50/EC50, VEGF_ADSC\ECFC Angio Hoechst NucArea (assay number 3) [2]: > 10 µM |
| Oc1ccc(O)cc1 [NCGC00015523-13] |  |  | < 5.00 | < 5.00 |  |
| CN(C)C(=O)Oc1cccc([N+](C)(C)C)c1.[Br-] [NCGC00015730-11] | > 10 | > 10 |  |  |  |
| OCCN1CCN(CCCN2c3ccccc3Sc3ccc(Cl)cc32)CC1 [NCGC00015826-13] |  |  | < 5.00 | < 5.00 |  |
| Cn1ccc2cc3c(cc21)CCN3C(=O)Nc1cccnc1 [NCGC00015917-06] |  |  |  |  | IC50/EC50, VEGF_ADSC\ECFC Angio CD31 TubeArea (assay number 2) [1]: > 10 µM; IC50/EC50, VEGF_ADSC\ECFC Angio Hoechst NucArea (assay number 3) [2]: > 10 µM |
| CC(C)(C)CC(C)(C)c1ccc(OCCOCC[N+](C)(C)Cc2ccccc2)cc1 [NCGC00016373-08] |  |  | 5.43 |  |  |
| Cc1cccc(C)c1NC(=O)CN1CCN(CCCC(c2ccc(F)cc2)c2ccc(F)cc2)CC1 [NCGC00016627-04] |  |  |  |  | IC50/EC50, VEGF_ADSC\ECFC Angio CD31 TubeArea (assay number 2) [1]: > 10 µM; IC50/EC50, VEGF_ADSC\ECFC Angio Hoechst NucArea (assay number 3) [2]: 9.37 µM |
| CN1CCC[C@@H]1CCO[C@](C)(c1ccccc1)c1ccc(Cl)cc1.O=C(O)/C=C/C(=O)O [NCGC00016710-05] | > 10 | > 10 |  |  |  |
| COc1ccc(CCN2CCC(Nc3nc4ccccc4n3Cc3ccc(F)cc3)CC2)cc1 [NCGC00016913-14] | > 10 | > 10 |  |  |  |
| O=c1oc2c(O)c(O)cc3c(=O)oc4c(O)c(O)cc1c4c23 [NCGC00017245-10] | > 10 | > 10 |  |  |  |
| Oc1ccc(/C=C/c2cc(O)cc(O)c2)cc1 [NCGC00017352-24] |  |  |  |  | IC50/EC50, VEGF_ADSC\ECFC Angio CD31 TubeArea (assay number 2) [1]: > 10 µM; IC50/EC50, VEGF_ADSC\ECFC Angio Hoechst NucArea (assay number 3) [2]: > 10 µM |
| CCOC(=O)C1=C[C@]2(CC)CCCN3CCc4c(n1c1ccccc41)[C@@H]32 [NCGC00018204-13] |  |  |  |  | IC50/EC50, VEGF_ADSC\ECFC Angio CD31 TubeArea (assay number 2) [1]: > 10 µM; IC50/EC50, VEGF_ADSC\ECFC Angio Hoechst NucArea (assay number 3) [2]: > 10 µM |
| CC(=O)Oc1cccc2c1C(=O)c1c(OC(C)=O)cc(C(=O)O)cc1C2=O [NCGC00018274-05] |  |  |  |  | IC50/EC50, VEGF_ADSC\ECFC Angio CD31 TubeArea (assay number 2) [1]: > 10 µM; IC50/EC50, VEGF_ADSC\ECFC Angio Hoechst NucArea (assay number 3) [2]: > 10 µM |
| O=C(c1ccc(F)cc1)C1CCN(CCn2c(=O)[nH]c3ccccc3c2=O)CC1 [NCGC00021146-09] | > 10 | > 10 |  |  |  |
| CCCCC(=O)O[C@H]1CC[C@H]2[C@@H]3CCc4cc(O)ccc4[C@@H]3CC[C@]12C [NCGC00022275-03] |  |  |  |  | IC50/EC50, VEGF_ADSC\ECFC Angio CD31 TubeArea (assay number 2) [1]: > 10 µM; IC50/EC50, VEGF_ADSC\ECFC Angio Hoechst NucArea (assay number 3) [2]: 8.298 µM |
| CC[C@@H]1C(=O)OC[C@@H]1Cc1cncn1C [NCGC00023339-16] | > 10 | > 10 |  |  |  |
| CCN1CCC[C@H]1CNC(=O)c1c(OC)ccc(Br)c1OC [NCGC00024870-06] | > 10 | > 10 |  |  |  |
| CC[N+](CC)(CC)CCOc1ccc(/C=C/c2ccccc2)cc1 [NCGC00025122-02] |  |  | < 5.00 | < 5.00 |  |
| Oc1ccc2[nH]cc(CCCCN3CC=C(c4ccccc4)CC3)c2c1 [NCGC00025216-03] | 4.0367 | > 10 |  |  |  |
| CS(=O)(=O)O.Cc1c(O)cccc1C(=O)N[C@@H](CSc1ccccc1)[C@H](O)CN1C[C@H]2CCCC[C@H]2C[C@H]1C(=O)NC(C)(C)C [NCGC00090782-06] | > 10 | > 10 |  |  |  |
| Nc1ccc(O)cc1 [NCGC00090816-05] |  |  |  |  | IC50/EC50, VEGF_ADSC\ECFC Angio CD31 TubeArea (assay number 2) [1]: > 10 µM; IC50/EC50, VEGF_ADSC\ECFC Angio Hoechst NucArea (assay number 3) [2]: > 10 µM |

| SMILES | VEGF_ADSC\ECFC Angio CD31 TubeArea IC50/EC50 [1] [µM] | VEGF_ADSC\ECFC Angio Hoechst NucArea IC50/EC50 [2] [µM] | pIC50 [1] | pIC50 [2] | further results |
| --- | --- | --- | --- | --- | --- |
| CCCCCCCCCCCC[N+](C)(C)CCOc1ccccc1 [NCGC00091010-03] |  |  | 5.47 | 5.14 |  |
| C#C[C@]1(O)CC[C@H]2[C@@H]3CCc4cc(O)ccc4[C@H]3CC[C@@]21C [NCGC00091533-10] |  |  | < 5.00 | < 5.00 |  |
| CN(C)C(=S)SSC(=S)N(C)C [NCGC00091563-12] |  |  |  | < 5.00 |  |
| CCCCC(CC)COC(=O)C(C#N)=C(c1ccccc1)c1ccccc1 (centres unmarked) [NCGC00091585-05] | > 10 | 3.289 |  |  |  |
| CC12CCC(CC1)C(C)(C)O2 [NCGC00091666-04] |  |  | < 5.00 | < 5.00 |  |
| O=C(O)c1ccc2[nH]cc(CCCCN3CC=C(c4ccccc4)CC3)c2c1 [NCGC00092328-02] | > 10 | > 10 |  |  |  |
| NC(=O)c1cccnc1 [NCGC00093354-05] |  |  | < 5.00 | < 5.00 |  |
| CCOc1ccc2nc3cc(N)ccc3c(N)c2c1 [NCGC00096056-02] |  |  |  | < 5.00 | pIC50 (HeLa cells; assay number 14, 2N, read-out: Hela CellCycMod PI 2N summarized IC50): < 5.00; pIC50 (HeLa cells; assay number 15, S phase, read-out: Hela CellCycMod PI S Phase summarized IC50): < 5.00; pIC50 (HeLa cells; assay number 16, 4N, read-out: Hela CellCycMod PI 4N summarized IC50): < 5.00; pIC50 (HeLa cells; assay number 17, MI, read-out: Hela CellCycMod PI MI summarized IC50): < 5.00; pIC50 (HeLa cells; assay number 18, cell number, read-out: Hela CellCycMod PI Cell Number summarized IC50): 5.68 |
| C[C@H]1O[C@@H](O[C@H]2[C@@H](O)C[C@H](O[C@H]3[C@@H](O)C[C@H](O[C@H]4CC[C@@]5(C)[C@H](CC[C@@H]6[C@@H]5CC[C@]5(C)[C@@H](C7=CC(=O)OC7)CC[C@]65O)C4)O[C@@H]3C)O[C@@H]2C)C[C@H](O)[C@@H]1O [NCGC00142623-04] |  |  | 7.96 | 6.99 |  |
| Oc1cc(Cl)ccc1Oc1ccc(Cl)cc1Cl [NCGC00159417-05] |  |  | < 5.00 | 5.09 |  |
| CC(=O)Oc1ccc(C2(c3ccc(OC(C)=O)cc3)C(=O)Nc3ccccc32)cc1 [NCGC00159420-04] |  |  |  |  | IC50/EC50, VEGF_ADSC\ECFC Angio CD31 TubeArea (assay number 2) [1]: > 10 µM; IC50/EC50, VEGF_ADSC\ECFC Angio Hoechst NucArea (assay number 3) [2]: > 10 µM |
| C[C@H]1O[C@@H](O[C@H]2CC[C@@]3(C)[C@H](CC[C@@H]4[C@@H]3C[C@@H](O)[C@]3(C)[C@@H](C5=CC(=O)OC5)CC[C@]43O)C2)C[C@H](O)[C@@H]1O[C@H]1C[C@H](O)[C@H](O[C@H]2C[C@H](O)[C@H](O[C@@H]3O[C@H](CO)[C@@H](O)[C@H](O)[C@H]3O)[C@@H](C)O2)[C@@H](C)O1 [NCGC00159441-03] | 0.0614 | 0.2987 |  |  |  |
| COC1=C(OC)C(=O)C(CCCCCCCCCCO)=C(C)C1=O [NCGC00160514-02] | > 10 | > 10 |  |  |  |
| O=C(N/N=C/c1ccccc1O)c1ccncc1 [NCGC00160648-02] |  |  | < 5.00 | < 5.00 |  |
| COc1ccc(/C=N/NC(=O)c2ccncc2)cc1OC [NCGC00160656-02] |  |  | < 5.00 | < 5.00 |  |
| O=C(CCN1CCC(c2ccccc2)C1)c1ccc2c(c1)OCCO2 (centres unmarked) [NCGC00160665-02] | > 10 | > 10 |  |  |  |
| CCCCCCCCOc1ccccc1C(=O)Nc1ccc(C(=O)OCC[N+](C)(CC)CC)cc1.[Br-] [NCGC00163507-03] | > 10 | 8.466 |  |  |  |
| O=[N+]([O-])C(Br)(CO)CO [NCGC00164057-03] |  |  | < 5.00 | < 5.00 |  |
| CCCOC(=O)c1cc(O)c(O)c(O)c1 [NCGC00164234-04] |  |  | < 5.00 | < 5.00 |  |
| OC[C@@H](O)[C@@H](O)[C@H](O)[C@@H](O)CO [NCGC00164353-05] | > 10 | > 10 |  |  |  |
| COc1cc(/C=C2\CCC/C(=C\c3ccc(O)c(OC)c3)C2=O)ccc1O [NCGC00164486-04] |  |  | < 5.00 | 5.16 |  |
| CCN(CC)C(=O)/C(C#N)=C/c1cc(O)c(O)c([N+](=O)[O-])c1 [NCGC00164555-03] | > 10 | > 10 |  |  |  |
| Cc1c(C(=O)NN2CCCCC2)nn(-c2ccc(Cl)cc2Cl)c1-c1ccc(Cl)cc1 [NCGC00164572-02] |  |  |  |  | IC50/EC50, VEGF_ADSC\ECFC Angio CD31 TubeArea (assay number 2) [1]: > 10 µM; IC50/EC50, VEGF_ADSC\ECFC Angio Hoechst NucArea (assay number 3) [2]: > 10 µM |
| CCCCCCCCCCC[C@@H](C[C@@H]1OC(=O)[C@H]1CCCCCC)OC(=O)[C@H](CC(C)C)NC=O [NCGC00165856-03] | > 10 | > 10 |  |  |  |
| S=C=Nc1ccc(N=C=S)cc1 [NCGC00166077-02] |  |  |  |  | IC50/EC50, VEGF_ADSC\ECFC Angio CD31 TubeArea (assay number 2) [1]: > 10 µM; IC50/EC50, VEGF_ADSC\ECFC Angio Hoechst NucArea (assay number 3) [2]: > 10 µM |
| CC[C@H](C)C(=O)O[C@H]1C[C@H](O)C=C2C=C[C@H](C)[C@H](CC[C@@H](O)C[C@@H](O)CC(=O)O)[C@H]21 [pravastatin, reference compound] |  |  |  |  | inhibition of endothelial tube / cord formation (in words) ([1]; ECFC/ADSC co-culture): did not inhibit endothelial tube formation |
